The values below are quoted from earlier work in EP0726072A2, “Composition for the treatment of hypertension and congestive heart failure, containing an angiotensin II antagonist and an endopeptidase inhibitor” (BRISTOL-MYERS SQUIBB COMPANY, priority 1995, dated 1996).

This series relates to cardiomyopathic hamsters. The note with it: 30 µmol/kg, i.v.; within 90 minutes; previously shown in this model; cited from earlier work.

Take `O=C(O)CCNC(=O)C(CS)Cc1ccccc1` (racemic) [SQ 28603, (±)-N-[2-(mercaptomethyl)-1-oxo-3-phenylpropyl]-β-alanine]: the “plasma atrial natriuretic peptide concentration” value was “doubling”.
